Where a name gives a salt, the structure may show the parent alone.
Tests used:
[1] = test system: Mupirocin Resistant S. aureus (24 Passages); assay: Chequerboard analysis of HT00800059 and mupirocin against mupirocin resistant S. aureus (24 passages); assay type: cell-based, Staphylococcus aureus
Method: (§1) Staphylococcus aureus (Oxford); Gram positive; Reference strain.
(§2) Log phase growth of mupirocin resistant Staphylococcus aureus (MSSA) was carried out as follows: • Bacteria were grown in 10 ml of nutrient broth (No. 2, (Oxoid)) overnight at 37° C. with continuous shaking at 120 rpm. The overnight cultures were diluted 1000× with iso-sensitest broth. The cultures were incubated at 37° C. with shaking for 1-2 hours to reach log CFU 6. Viability of the bacteria was estimated by colony forming unit (CFU) counts. From serial 10-fold dilutions of the experimental cultures, 100 μl samples were added to triplicate plates of nutrient agar plates (Oxoid) or blood agar plates (Oxoid). CFUs were counted after incubation of the plates at 37° C. for 24 hours.
(§3) Bacterial cultures: 10 μl of overnight cultures was added to 10 ml of fresh iso-sensitest broth to make the inoculation to 10^6 CFU/ml. 290 μl of the cell suspension was added to each well of the 96 well plate, which was incubated at 37° C. for 24 hours. 300 μl of iso-sensitest broth without bacterial cells were added to wells of the plate as a no bacterial control.
(§4) MIC determination: The optical density of the bacterial cells was read at 405 nm using a plate reader (Bio TEK). The MIC concentration was determined as the lowest concentration of drug which inhibits the bacterial growth.
(§5) Mupirocin was dissolved in DMSO to the stock concentration of 10 mg/ml. HT00800059 was dissolved in H2O to the stock solution 30.07 mg/ml.
(§6) Mupirocin (10 mg/ml) was firstly diluted to 3.84 mg/ml, then further diluted in a serial of 2 fold dilutions. HT00800059 (30.7 mg/ml) was performed in a serial of 2 fold dilutions.
(§7) This was followed by the addition of 280 μl of log phase culture at 10^6 CFU/ml to make the final concentrations of each drug as shown in Table 1 and Table 2.
(§8) In the above table, values in bold text are for HT00800059. Values in plain text are for mupirocin. The numbers shown in each well are μg/ml.
(§9) Incubation of the compounds with the bacterial suspension was carried out for 24 hours. The kill effects of the drug combination were measured by optical density reading at 405 nm with a plate reader (Bio TEK).
(§10) The fractional inhibitory concentration (FIC) index was carried out as following: (MIC of drug A, tested in combination)/(MIC of drug A, tested alone)+(MIC of drug B, tested in combination)/(MIC of drug B, tested alone). The interaction was defined as synergistic if the FIC index was <1, additive if the FIC index was =1 and antagonistic if the FIC index was >1.

[2] = test system: log phase Staphylococcus aureus; assay: Chequerboard analysis of HT00800059 and mupirocin against log phase Staphylococcus aureus; assay type: cell-based, Staphylococcus aureus (Oxford); details: for optical density reading at 405 nm: 24 hours
Method: Staphylococcus aureus (Oxford); Gram positive; Reference strain. Log phase growth of […] sensitive Staphylococcus aureus (MSSA) was carried out as follows: • Bacteria were grown in 10 ml of nutrient broth (No. 2, (Oxoid)) overnight at 37° C. with continuous shaking at 120 rpm. […] The cultures were incubated at 37° C. with shaking for 1-2 hours to reach log CFU 6. Viability of the bacteria was estimated by colony forming unit (CFU) counts. From serial 10-fold dilutions of the experimental cultures, 100 μl samples were added to triplicate plates of nutrient agar plates (Oxoid) or blood agar plates (Oxoid). CFUs were counted after incubation of the plates at 37° C. for 24 hours. […] 290 μl of the cell suspension was added to each well of the 96 well plate, which was incubated at 37° C. for 24 hours. […] MIC determination: The optical density of the bacterial cells was read at 405 nm using a plate reader (Bio TEK). The MIC concentration was determined as the lowest concentration of drug which inhibits the bacterial growth. […] HT00800059 was dissolved in H2O to the stock solution 30.07 mg/ml. […] HT00800059 (30.7 mg/ml) was performed in a serial of 2 fold dilutions. This was followed by the addition of 280 μl of log phase culture at 10^6 CFU/ml to make the final concentrations of each drug as shown. In the above table, values in bold text are for HT00800059. Values in plain text are for mupirocin. The numbers shown in each well are μg/ml. Incubation of the compounds with the bacterial suspension was carried out for 24 hours. The kill effects of the drug combination were measured by optical density reading at 405 nm with a plate reader (Bio TEK). The fractional inhibitory concentration (FIC) index was carried out as following: (MIC of drug A, tested in combination)/(MIC of drug A, tested alone)+(MIC of drug B, tested in combination)/(MIC of drug B, tested alone). The interaction was defined as synergistic if the FIC index was <1, additive if the FIC index was =1 and antagonistic if the FIC index was >1.

[3] = test system: Mupirocin Resistant S. aureus (28 Passages); assay: Chequerboard analysis of HT00800059 and mupirocin against mupirocin resistant S. aureus (28 passages); assay type: cell-based, Staphylococcus aureus
Method: as §1, §2, §3, §4, §5, §6, §7, §8, §9, §10

[4] = Staphylococcus aureus, read-out: alone MIC

## CCCCOc1ccc(C(=O)CCN2CCCCC2)cc1 [HT00800059, dyclonine (1-(4-Butoxyphenyl)-3-(1-piperidinyl)-1-propanone) hydrochloride]
[1]; [4]
  MIC: 512 µg/mL
[1]; resistant strain 24 passages
  MIC before combination: 512 µg/mL
  MIC post combination: 64 µg/mL
[1]; with mupirocin 8 μg/ml, 24 passages
  HT00800059 MIC in combination: 64 µg/mL
[2]; [4]
  MIC: 512 µg/mL
[2]; iso-sensitest broth
  MIC before combination: 512 µg/mL
  MIC post combination: 64 µg/mL
[2]; iso-sensitest broth, HT00800059 1 μg/ml, mupirocin μg/ml: 1,0.5,0.25,0.125,0.0625,0.03125,0.015625,0
  optical density reading at 405 nm: 1.49
[2]; iso-sensitest broth, HT00800059 2 μg/ml, mupirocin μg/ml: 1,0.5,0.25,0.125,0.0625,0.03125,0.015625,0
  optical density reading at 405 nm: 1.47
[2]; iso-sensitest broth, HT00800059 4 μg/ml, mupirocin μg/ml: 1,0.5,0.25,0.125,0.0625,0.03125,0.015625,0
  optical density reading at 405 nm: 1.46
[2]; iso-sensitest broth, HT00800059 8 μg/ml, mupirocin μg/ml: 1,0.5,0.25,0.125,0.0625,0.03125,0.015625,0
  optical density reading at 405 nm: 1.47
[2]; iso-sensitest broth, HT00800059 16 μg/ml, mupirocin μg/ml: 1,0.5,0.25,0.125,0.0625,0.03125,0.015625,0
  optical density reading at 405 nm: 1.52
[2]; iso-sensitest broth, HT00800059 32 μg/ml, mupirocin μg/ml: 1,0.5,0.25,0.125,0.0625,0.03125,0.015625,0
  optical density reading at 405 nm: 1.55
[2]; iso-sensitest broth, HT00800059 64 μg/ml, mupirocin μg/ml: 1,0.5,0.25,0.125,0.0625,0.03125,0.015625,0
  optical density reading at 405 nm: 1.34
[2]; iso-sensitest broth, HT00800059 128 μg/ml, mupirocin μg/ml: 1,0.5,0.25,0.125,0.0625,0.03125,0.015625,0
  optical density reading at 405 nm: 1.20
[2]; iso-sensitest broth, HT00800059 256 μg/ml, mupirocin μg/ml: 1,0.5,0.25,0.125,0.0625,0.03125,0.015625,0
  optical density reading at 405 nm: 1.09
[2]; iso-sensitest broth, HT00800059 512 μg/ml, mupirocin μg/ml: 1,0.5,0.25,0.125,0.0625,0.03125,0.015625,0
  optical density reading at 405 nm: 0.36
[2]; iso-sensitest broth, HT00800059 1024 μg/ml, mupirocin μg/ml: 1,0.5,0.25,0.125,0.0625,0.03125,0.015625,0
  optical density reading at 405 nm: 0.36
[2]; nutrient broth
  MIC before combination: 512 µg/mL
  MIC post combination: 64 µg/mL
[2]; nutrient broth, HT00800059 1 μg/ml, mupirocin μg/ml: 1,0.5,0.25,0.125,0.625 [sic],0.03125,0.15625 [sic],0
  optical density reading at 405 nm: 0.858
[2]; nutrient broth, HT00800059 2 μg/ml, mupirocin μg/ml: 1,0.5,0.25,0.125,0.625 [sic],0.03125,0.15625 [sic],0
  optical density reading at 405 nm: 0.884
[2]; nutrient broth, HT00800059 4 μg/ml, mupirocin μg/ml: 1,0.5,0.25,0.125,0.625 [sic],0.03125,0.15625 [sic],0
  optical density reading at 405 nm: 0.885
[2]; nutrient broth, HT00800059 8 μg/ml, mupirocin μg/ml: 1,0.5,0.25,0.125,0.625 [sic],0.03125,0.15625 [sic],0
  optical density reading at 405 nm: 0.867
[2]; nutrient broth, HT00800059 16 μg/ml, mupirocin μg/ml: 1,0.5,0.25,0.125,0.625 [sic],0.03125,0.15625 [sic],0
  optical density reading at 405 nm: 0.840
[2]; nutrient broth, HT00800059 32 μg/ml, mupirocin μg/ml: 1,0.5,0.25,0.125,0.625 [sic],0.03125,0.15625 [sic],0
  optical density reading at 405 nm: 0.759
[2]; nutrient broth, HT00800059 64 μg/ml, mupirocin μg/ml: 1,0.5,0.25,0.125,0.625 [sic],0.03125,0.15625 [sic],0
  optical density reading at 405 nm: 0.721
[2]; nutrient broth, HT00800059 128 μg/ml, mupirocin μg/ml: 1,0.5,0.25,0.125,0.625 [sic],0.03125,0.15625 [sic],0
  optical density reading at 405 nm: 0.528
[2]; nutrient broth, HT00800059 256 μg/ml, mupirocin μg/ml: 1,0.5,0.25,0.125,0.625 [sic],0.03125,0.15625 [sic],0
  optical density reading at 405 nm: 0.524
[2]; nutrient broth, HT00800059 512 μg/ml, mupirocin μg/ml: 1,0.5,0.25,0.125,0.625 [sic],0.03125,0.15625 [sic],0
  optical density reading at 405 nm: 0.284
[2]; nutrient broth, HT00800059 1024 μg/ml, mupirocin μg/ml: 1,0.5,0.25,0.125,0.625 [sic],0.03125,0.15625 [sic],0
  optical density reading at 405 nm: 0.291
[2]; with mupirocin 0.125 μg/ml
  HT00800059 MIC in combination: 64 µg/mL
[3]; [4]
  MIC: 512 µg/mL
[3]; resistant strain 28 passages
  MIC before combination: 512 µg/mL
  MIC post combination: 64 µg/mL
[3]; with mupirocin 32 μg/ml, 28 passages
  HT00800059 MIC in combination: 64 µg/mL
